Molecules are shown by their SMILES. Activity calls are given as the source filed them. The calls are words filed in the database; no cut-off is given here.

The text below walks through data of ChEMBL document CHEMBL4325871 (Eur J Med Chem, 2019).

Assay [1] deals with Activated CDC42 kinase 1 (Homo sapiens) (UniProt Q07912). Briefly: Inhibition of human ACK1 assessed as residual activity at 1 uM using EAIYAAPFAKKK as substrate by [gamma-33P]-ATP assay relative to control.
Assay [2] concerns the target Dual specificity mitogen-activated protein kinase kinase 2 (Homo sapiens) (UniProt P36507). The experiment in a line: Inhibition of human MEK2 assessed as residual activity at 1 uM using ERK2 as substrate by [gamma-33P]-ATP assay relative to control.
The target of assay [3] is CDK7/Cyclin H/MNAT1 (Homo sapiens) (UniProt P51946+P50613+P51948). The experiment in a line: Inhibition of human CDK7/cyclin-H/MNAT1 assessed as residual activity at 1 uM using MBP as substrate by [gamma-33P]-ATP assay relative to control. The class given is protein-complex assay.
Assay [4] deals with Inactive tyrosine-protein kinase PEAK1 (Homo sapiens) (UniProt Q9H792). Briefly: Inhibition of human PEAK1 assessed as residual activity at 1 uM using MBP as substrate by [gamma-33P]-ATP assay relative to control.
For assay [5], the target named is PAS domain-containing serine/threonine-protein kinase (Homo sapiens) (UniProt Q96RG2). Briefly: Inhibition of human PASK assessed as residual activity at 1 uM using KKLNRTLSFAEPG as substrate by [gamma-33P]-ATP assay relative to control.
The target of assay [6] is Serine/threonine-protein kinase D3 (Homo sapiens) (UniProt O94806). The experiment in a line: Inhibition of human PKCnu assessed as residual activity at 1 uM using KKLNRTLSVA as substrate by [gamma-33P]-ATP assay relative to control.
For assay [7], the target named is Mitogen-activated protein kinase 8 (Homo sapiens) (UniProt P45983). Briefly: Inhibition of human JNK1 assessed as residual activity at 1 uM using ATF2 as substrate by [gamma-33P]-ATP assay relative to control.
Assay [8] has as its target Tyrosine-protein kinase Blk (Homo sapiens) (UniProt P51451). Briefly: Inhibition of human BLK assessed as residual activity at 1 uM using poly[Glu:Tyr](4:1) as substrate by [gamma-33P]-ATP assay relative to control.
For assay [9], the target named is Serine/threonine-protein kinase PLK2 (Homo sapiens) (UniProt Q9NYY3). The experiment in a line: Inhibition of human PLK2 assessed as residual activity at 1 uM using casein as substrate by [gamma-33P]-ATP assay relative to control.
In assay [10] the target is Phosphorylase b kinase gamma catalytic chain, liver/testis isoform (Homo sapiens) (UniProt P15735). Briefly: Inhibition of human PHKgamma2 assessed as residual activity at 1 uM using MBP as substrate by [gamma-33P]-ATP assay relative to control.
The target in assay [11] is Serine/threonine-protein kinase MARK2 (Homo sapiens) (UniProt Q7KZI7). The experiment in a line: Inhibition of human MARK2 assessed as residual activity at 1 uM using KKKVSRSGLYRSPSMPENLNRPR as substrate by [gamma-33P]-ATP assay relative to control.
Assay [12] addresses MAP/microtubule affinity-regulating kinase 3 (Homo sapiens) (UniProt P27448). Briefly: Inhibition of human MARK3 assessed as residual activity at 1 uM using KKKVSRSGLYRSPSMPENLNRPR as substrate by [gamma-33P]-ATP assay relative to control.
Assay [13] deals with Myosin-IIIb (Homo sapiens) (UniProt Q8WXR4). Briefly: Inhibition of human MYO3B assessed as residual activity at 1 uM using MBP as substrate by [gamma-33P]-ATP assay relative to control.
The target in assay [14] is Wee1-like protein kinase (Homo sapiens) (UniProt P30291). The experiment in a line: Inhibition of human WEE1 assessed as residual activity at 1 uM using MBP as substrate by [gamma-33P]-ATP assay relative to control.
The target of assay [15] is Serine/threonine-protein kinase Sgk1 (Homo sapiens) (UniProt O00141). The experiment in a line: Inhibition of human SGK1 assessed as residual activity at 1 uM using KGSGSGRPRTSSFAEG as substrate by [gamma-33P]-ATP assay relative to control.
In assay [16] the target is Mitogen-activated protein kinase kinase kinase 10 (Homo sapiens) (UniProt Q02779). The experiment in a line: Inhibition of human MLK2 assessed as residual activity at 1 uM using MBP as substrate by [gamma-33P]-ATP assay relative to control.
Assay [17] concerns the target Serine/threonine-protein kinase N2 (Homo sapiens) (UniProt Q16513). The experiment in a line: Inhibition of human PKN2 assessed as residual activity at 1 uM using KKLNRTLSVA as substrate by [gamma-33P]-ATP assay relative to control.
For assay [18], the target named is Serine/threonine-protein kinase ULK3 (Homo sapiens) (UniProt Q6PHR2). Briefly: Inhibition of human ULK3 assessed as residual activity at 1 uM using MBP as substrate by [gamma-33P]-ATP assay relative to control.
Assay [19] addresses Macrophage-stimulating protein receptor (Homo sapiens) (UniProt Q04912). The experiment in a line: Inhibition of human RON assessed as residual activity at 1 uM using KKSRGDYMTMQIG as substrate by [gamma-33P]-ATP assay relative to control.
For assay [20], the target named is MAP kinase-activated protein kinase 5 (Homo sapiens) (UniProt Q8IW41). The experiment in a line: Inhibition of human MAPKAPK5 assessed as residual activity at 1 uM using KKLNRTLSVA as substrate by [gamma-33P]-ATP assay relative to control.
In assay [21] the target is Calcium/calmodulin-dependent protein kinase type II subunit alpha (Homo sapiens) (UniProt Q9UQM7). Briefly: Inhibition of human CAMK2A assessed as residual activity at 1 uM using KKALRRQETVDAL as substrate by [gamma-33P]-ATP assay relative to control.
For assay [22], the target named is Citron Rho-interacting kinase (Homo sapiens) (UniProt O14578). The experiment in a line: Inhibition of human STK21 assessed as residual activity at 1 uM using MBP as substrate by [gamma-33P]-ATP assay relative to control.
Assay [23] concerns the target T1, Serine/threonine-protein kinase Chk1 (Homo sapiens) (UniProt O14757).
T1 sequence (whole entry): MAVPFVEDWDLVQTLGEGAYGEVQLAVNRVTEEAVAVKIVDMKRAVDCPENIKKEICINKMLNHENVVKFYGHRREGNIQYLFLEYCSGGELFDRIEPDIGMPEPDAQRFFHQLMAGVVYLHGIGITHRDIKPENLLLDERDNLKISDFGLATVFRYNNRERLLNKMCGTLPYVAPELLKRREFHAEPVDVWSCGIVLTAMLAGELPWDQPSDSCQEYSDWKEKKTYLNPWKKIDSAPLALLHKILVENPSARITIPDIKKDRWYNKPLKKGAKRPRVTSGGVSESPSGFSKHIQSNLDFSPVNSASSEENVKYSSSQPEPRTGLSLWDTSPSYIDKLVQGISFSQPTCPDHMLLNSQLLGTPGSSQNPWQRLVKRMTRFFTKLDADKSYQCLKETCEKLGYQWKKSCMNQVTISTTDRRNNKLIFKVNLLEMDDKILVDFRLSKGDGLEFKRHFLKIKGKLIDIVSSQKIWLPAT
The experiment in a line: Inhibition of hydroxyurea-induced CHK1 phosphorylation at S296 residue in human HCT116 cells at 20 uM treated for 8 hrs starting from 24 hrs post hydroxyurea addition by Western blot analysis. Format: cell-based. In general terms: A western blot detects proteins with antibodies after separation by electrophoresis.

Chain of Myosin-IIIb (Homo sapiens) (Q8WXR4 whole entry): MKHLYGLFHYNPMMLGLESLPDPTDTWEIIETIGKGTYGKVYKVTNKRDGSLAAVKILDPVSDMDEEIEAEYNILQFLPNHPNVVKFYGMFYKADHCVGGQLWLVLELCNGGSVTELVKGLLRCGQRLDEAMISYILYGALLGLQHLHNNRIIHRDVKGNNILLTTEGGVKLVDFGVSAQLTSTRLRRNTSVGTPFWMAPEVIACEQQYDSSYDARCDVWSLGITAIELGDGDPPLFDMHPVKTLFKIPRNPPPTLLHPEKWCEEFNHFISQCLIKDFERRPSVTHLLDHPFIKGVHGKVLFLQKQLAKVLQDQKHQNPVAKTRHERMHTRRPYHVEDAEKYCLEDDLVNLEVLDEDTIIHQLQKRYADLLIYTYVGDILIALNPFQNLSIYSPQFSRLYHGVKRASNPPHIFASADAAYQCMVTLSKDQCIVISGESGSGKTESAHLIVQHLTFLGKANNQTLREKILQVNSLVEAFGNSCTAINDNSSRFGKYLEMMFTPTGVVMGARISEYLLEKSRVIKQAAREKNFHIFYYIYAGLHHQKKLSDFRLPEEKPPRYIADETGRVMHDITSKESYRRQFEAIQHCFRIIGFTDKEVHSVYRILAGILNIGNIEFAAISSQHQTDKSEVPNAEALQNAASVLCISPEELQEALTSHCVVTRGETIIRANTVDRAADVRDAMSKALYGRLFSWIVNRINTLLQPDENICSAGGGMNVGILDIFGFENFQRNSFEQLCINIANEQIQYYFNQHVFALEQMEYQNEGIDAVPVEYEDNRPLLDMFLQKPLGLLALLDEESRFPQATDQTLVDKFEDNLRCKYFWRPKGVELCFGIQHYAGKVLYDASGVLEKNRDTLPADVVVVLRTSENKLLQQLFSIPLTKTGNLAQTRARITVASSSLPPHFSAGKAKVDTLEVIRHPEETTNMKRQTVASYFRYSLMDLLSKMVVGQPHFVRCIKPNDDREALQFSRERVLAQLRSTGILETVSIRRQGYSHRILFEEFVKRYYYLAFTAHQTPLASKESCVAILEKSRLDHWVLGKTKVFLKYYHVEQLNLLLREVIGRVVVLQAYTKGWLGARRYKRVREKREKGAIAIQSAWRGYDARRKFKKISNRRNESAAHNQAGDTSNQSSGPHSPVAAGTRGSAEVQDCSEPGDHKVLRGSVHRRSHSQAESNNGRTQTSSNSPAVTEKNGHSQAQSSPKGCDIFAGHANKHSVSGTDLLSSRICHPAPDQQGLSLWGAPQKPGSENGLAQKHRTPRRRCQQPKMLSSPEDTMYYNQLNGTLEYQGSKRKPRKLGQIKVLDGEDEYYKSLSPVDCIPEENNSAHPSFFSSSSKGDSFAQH
Chain of Citron Rho-interacting kinase (Homo sapiens) (O14578 whole entry): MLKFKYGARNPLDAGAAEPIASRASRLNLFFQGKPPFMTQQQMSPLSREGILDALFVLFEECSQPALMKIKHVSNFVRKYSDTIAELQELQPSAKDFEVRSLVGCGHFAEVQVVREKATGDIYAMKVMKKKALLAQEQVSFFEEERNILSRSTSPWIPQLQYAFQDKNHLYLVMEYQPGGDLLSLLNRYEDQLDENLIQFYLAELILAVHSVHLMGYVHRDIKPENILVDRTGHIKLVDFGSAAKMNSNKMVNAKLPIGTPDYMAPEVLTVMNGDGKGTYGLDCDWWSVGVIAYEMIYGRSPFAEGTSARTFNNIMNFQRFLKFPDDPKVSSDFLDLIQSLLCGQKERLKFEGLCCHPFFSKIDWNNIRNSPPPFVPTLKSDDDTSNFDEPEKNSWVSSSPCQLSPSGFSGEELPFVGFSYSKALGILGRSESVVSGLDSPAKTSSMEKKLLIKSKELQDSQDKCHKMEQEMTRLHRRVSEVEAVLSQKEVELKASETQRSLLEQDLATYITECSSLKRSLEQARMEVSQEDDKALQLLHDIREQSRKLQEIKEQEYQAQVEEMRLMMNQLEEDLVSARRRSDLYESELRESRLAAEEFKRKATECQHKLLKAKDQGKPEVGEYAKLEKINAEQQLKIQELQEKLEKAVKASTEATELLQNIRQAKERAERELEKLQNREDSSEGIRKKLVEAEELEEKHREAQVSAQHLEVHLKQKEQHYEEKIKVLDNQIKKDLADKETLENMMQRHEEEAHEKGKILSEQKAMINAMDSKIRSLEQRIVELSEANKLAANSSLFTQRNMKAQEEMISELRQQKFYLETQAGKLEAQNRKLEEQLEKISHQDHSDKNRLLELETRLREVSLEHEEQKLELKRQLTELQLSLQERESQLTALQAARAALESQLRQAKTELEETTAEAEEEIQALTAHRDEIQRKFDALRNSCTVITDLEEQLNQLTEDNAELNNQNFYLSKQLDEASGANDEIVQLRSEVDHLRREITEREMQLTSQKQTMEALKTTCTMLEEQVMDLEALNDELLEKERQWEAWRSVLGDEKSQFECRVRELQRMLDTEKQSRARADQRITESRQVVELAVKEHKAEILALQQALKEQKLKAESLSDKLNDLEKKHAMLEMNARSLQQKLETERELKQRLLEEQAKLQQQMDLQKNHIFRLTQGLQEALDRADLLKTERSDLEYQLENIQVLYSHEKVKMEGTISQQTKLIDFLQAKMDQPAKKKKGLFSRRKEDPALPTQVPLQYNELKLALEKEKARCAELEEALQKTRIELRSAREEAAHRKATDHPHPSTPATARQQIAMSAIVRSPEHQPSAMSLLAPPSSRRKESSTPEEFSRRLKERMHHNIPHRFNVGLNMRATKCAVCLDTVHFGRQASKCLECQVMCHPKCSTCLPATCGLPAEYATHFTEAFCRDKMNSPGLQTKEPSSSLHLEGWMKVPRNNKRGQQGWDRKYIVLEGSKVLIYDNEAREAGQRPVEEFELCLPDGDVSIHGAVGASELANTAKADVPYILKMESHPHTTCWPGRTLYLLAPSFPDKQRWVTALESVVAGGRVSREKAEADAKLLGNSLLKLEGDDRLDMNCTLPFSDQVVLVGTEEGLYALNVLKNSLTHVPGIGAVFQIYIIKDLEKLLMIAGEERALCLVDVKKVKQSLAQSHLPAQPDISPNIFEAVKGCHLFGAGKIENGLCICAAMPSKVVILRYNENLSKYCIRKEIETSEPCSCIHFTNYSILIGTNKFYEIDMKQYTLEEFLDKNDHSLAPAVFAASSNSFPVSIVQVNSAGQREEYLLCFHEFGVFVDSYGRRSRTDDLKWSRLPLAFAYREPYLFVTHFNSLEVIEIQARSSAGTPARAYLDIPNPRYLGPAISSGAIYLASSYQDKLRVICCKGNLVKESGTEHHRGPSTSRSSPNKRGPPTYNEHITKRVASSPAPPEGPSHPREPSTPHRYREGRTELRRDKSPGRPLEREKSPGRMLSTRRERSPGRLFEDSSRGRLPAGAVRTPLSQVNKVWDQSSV
Chain of Activated CDC42 kinase 1 (Homo sapiens) (Q07912 whole entry, looked up): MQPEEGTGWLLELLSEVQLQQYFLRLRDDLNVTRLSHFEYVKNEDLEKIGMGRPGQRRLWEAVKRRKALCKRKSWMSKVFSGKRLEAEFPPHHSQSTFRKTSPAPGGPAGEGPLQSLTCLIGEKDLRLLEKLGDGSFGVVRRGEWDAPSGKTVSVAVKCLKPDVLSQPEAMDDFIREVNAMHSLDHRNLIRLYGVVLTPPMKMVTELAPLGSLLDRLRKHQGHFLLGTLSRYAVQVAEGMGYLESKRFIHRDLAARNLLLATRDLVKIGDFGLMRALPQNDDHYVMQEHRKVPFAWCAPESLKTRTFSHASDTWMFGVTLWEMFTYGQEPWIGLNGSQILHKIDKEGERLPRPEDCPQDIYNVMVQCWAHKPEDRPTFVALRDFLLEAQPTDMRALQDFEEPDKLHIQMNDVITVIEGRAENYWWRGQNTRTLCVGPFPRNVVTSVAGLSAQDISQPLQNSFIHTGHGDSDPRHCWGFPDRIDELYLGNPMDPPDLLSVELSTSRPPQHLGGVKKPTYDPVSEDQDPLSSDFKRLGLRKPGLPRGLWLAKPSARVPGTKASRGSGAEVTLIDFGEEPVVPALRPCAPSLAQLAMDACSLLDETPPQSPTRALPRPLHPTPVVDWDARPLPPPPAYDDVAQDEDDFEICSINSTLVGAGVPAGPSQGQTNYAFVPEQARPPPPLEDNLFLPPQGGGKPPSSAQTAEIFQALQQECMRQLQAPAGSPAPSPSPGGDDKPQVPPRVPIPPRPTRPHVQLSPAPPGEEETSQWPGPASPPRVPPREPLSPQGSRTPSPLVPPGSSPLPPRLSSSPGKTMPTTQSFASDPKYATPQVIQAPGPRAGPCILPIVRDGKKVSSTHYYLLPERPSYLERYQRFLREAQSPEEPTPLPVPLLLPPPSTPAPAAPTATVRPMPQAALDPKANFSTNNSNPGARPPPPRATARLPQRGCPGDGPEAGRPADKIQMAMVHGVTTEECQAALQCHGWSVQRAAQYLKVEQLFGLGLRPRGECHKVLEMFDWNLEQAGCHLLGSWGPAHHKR
Chain of Serine/threonine-protein kinase ULK3 (Homo sapiens) (Q6PHR2 whole entry): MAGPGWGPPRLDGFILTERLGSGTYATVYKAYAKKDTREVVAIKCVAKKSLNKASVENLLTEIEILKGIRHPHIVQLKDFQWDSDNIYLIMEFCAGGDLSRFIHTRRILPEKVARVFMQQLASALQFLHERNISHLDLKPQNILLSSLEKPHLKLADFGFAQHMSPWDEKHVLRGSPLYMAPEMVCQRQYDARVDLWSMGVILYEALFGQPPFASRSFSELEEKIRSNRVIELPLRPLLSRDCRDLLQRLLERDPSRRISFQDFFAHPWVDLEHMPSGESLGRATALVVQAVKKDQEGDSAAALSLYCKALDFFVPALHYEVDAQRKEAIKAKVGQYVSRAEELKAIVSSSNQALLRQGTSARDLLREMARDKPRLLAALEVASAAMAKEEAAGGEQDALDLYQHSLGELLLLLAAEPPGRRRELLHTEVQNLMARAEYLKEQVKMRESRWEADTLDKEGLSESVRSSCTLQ

Consider `ClC/C=C/C[N+]12CN3CN(CN(C3)C1)C2`, for which the Activity lay in the range of 90.6 to 94.8% in assay [1]; 85.2 to 94.1% in assay [2]; 97.4 to 97.9% in [3]; 94.2 to 94.3% in assay [4]; 94.3 to 95.1% in assay [5]; 93.2 to 96.7% in [6]. Besides, the Activity in assay [7] was 96 to 96.5%; in assay [8], 93.1 to 94.8%; in assay [9], 96.6 to 96.8%; in [10], 92.2 to 94.9%; in assay [11], 94.5%; in assay [12], 148 to 153%. The Activity in [13] lay in the range of 84.1 to 87.7%.

`C(=C\c1ccccc1)/C[N+]12CN3CN(CN(C3)C1)C2`: the Activity was 112 to 120% in assay [14]; 93.4 to 94.1% in [15]; 96 to 96.1% in assay [16]; 95.9 to 108% in [17]; 90.5 to 93.8% in [18]; 93.3 to 94.8% in [19]. Besides, the Activity in assay [20] was 93.2 to 94.5%; in assay [21], 93.1 to 94.1%; in assay [22] it was 92.4 to 95.5%. In addition, in assay [23], the inhibition entry was “Active”.
